# Measurements taken from patent publication US9540325B2, “N1-cyclic amine-N5-substituted phenyl biguanide derivatives, methods of preparing the same and pharmaceutical composition comprising the same” (Immunomet Therapeutics, Inc., priority 2011, dated 2017).
# Assays:
# [1] = Solubility in water of hydrochloride and acetate salts; assay type: physicochemical; conditions: content 5 mg/1 ml distilled water, room temperature
# Description: The solubilities in water of the hydrochlorides prepared in Examples 26, 27, 32, 33, 48, 49, 53 and 54, and the solubilities in water of the acetates prepared in Examples 70 to 77, were compared.
# The experimental conditions and methods are described, as follows.
# 1) 1 ml of distilled water is added to a container including 5 mg of salt at room temperature.
# 2) The resulting mixture is stirred for 10 minutes, and then kept at room temperature for 1 hour.
# 3) Undissolved residual salt is recovered and weighed.
# 4) The ratio of the amount of the recovered salt and the amount of the dissolved salt is calculated.
# 5) Operations 1) to 4) are repeatedly performed with increasing amount (i.e., 10, 15, 20, 25 and 30 mg) of salt.
# The experimental procedures were performed for each of the hydrochlorides of Examples 26, 27, 32, 33, 48, 49, 53 and 54 and the acetates of Examples 70 to 77. The comparative solubilities obtained using the hydrochlorides of Examples 26, 27, 32, 33, 48, 49, 53 and 54 and the acetates of Examples 70 to 77 are listed in the following Table 1.
# [2] = test system: MCF7 cells (breast cancer stem cell, mammosphere); assay: Measurement of effect of inhibiting mammosphere formation; assay type: cell-based, human; conditions: MCF7, 8 days; for Number of Mammospheres: size 50 um or more; for inhibition at 0.1 µM / inhibition at 1 µM / inhibition at 5 µM / inhibition at 10 µM: Homo sapiens, 192 h, vs untreated, read-out: Mammosphere formation inhibition rate (%)
# Source text: The cancer stem cells refer to cancer cells that have self-regeneration or differentiation capacity which is characteristically innate to stem cells. Here, the cancer stem cells show resistance to conventional anticancer therapy and poor prognosis. Therefore, the biguanide derivative has an effect of inhibiting cancer recurrence by inhibiting formation and proliferation of cancer stem cells, especially, breast cancer stem cells (mammosphere). Accordingly, the effect of the biguanide derivative of inhibiting breast cancer stem cell (mammosphere) formation was measured in an MCF7 cell line derived from human breast cancer forming mammospheres, and simple experimental methods are described, as follows.
# MCF7 cells derived from human breast cancer were cultured (culture temperature: 37° C., pH: 7.0 to 7.4) in a DMEM medium supplemented with 10% (v/v) fetal bovine serum (commercially available from Gibco Life Technologies (US)) so that the MCF7 cells could grow to approximately 80% confluency and used in an experiment to determine an ability to form mammospheres. After MCF7 cells were made to single cells and the number of cell was counted, MCF7 cells were put in to a 24-well plate at 2,000 cells/well. […] Also, a culture media for forming mammospheres was prepared so that a serum-free DMEM/F12 medium could include 2% B27 (commercially available from Invitrogen), 20 ng/ml EGF (commercially available from Sigma), 5 μg/ml insulin (commercially available from Sigma) and 1 μg/ml hydrocortisone (commercially available from Sigma). Cells were cultured in a CO2 incubator for 24 hours and treated with each of the compounds synthesized in the examples at contents of 0.1 μM, 1 μM, 5 μM and 10 μM. Then, the cultured cells were added to the culture media for forming mammospheres so that a final volume of the culture broth could be adjusted to 1 ml. The cells were treated with the same concentrations of phenformin hydrochloride as the control and cultured in a CO2 incubator for 8 days. Thereafter, the mammosphere-forming efficiency and size of the cells were observed. After 8 days, the number of mammospheres having a size of 50 um or more was determined to calculate the mammosphere-forming efficiency (MFE (%)). The MFE (%) is calculated according to the following Equation 1.
# When the cells were cultured for 8 days, MFE (%) of the cells on a plate treated with the phenformin hydrochloride and the compounds synthesized in the examples was compared with MFE (%) of the cells on a plate that was not treated with the compounds. The results are listed as the mammosphere formation inhibition rate (%) in the following Table 4, and the mammosphere-forming efficiencies of the respective compounds are shown in FIG. 1.
# AMPKα = assay: Measurement of AMPK activation effect (AMPKα Thr172 phosphorylation immunoassay) in MCF7 cells; assay type: cell-based, human; conditions: 24 hours; for AMPK activation effect at 10 μM (%) / AMPK activation effect at 50 μM (%): relative to untreated cells; for AMPK activation effect AC150: concentration at which AMPK activation reached 150%
# Method in brief: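 MCF7 cells in DMEM/10% FBS were treated 24 h with derivatives at 5, 10 and 50 μM (metformin hydrochloride control, 0.05–10 mM). AMPKα Thr172 phosphorylation was measured by immunoassay on 20 μg lysate. AC150 (concentration giving 150% activation) came from concentration–response curves, with activation also reported at fixed concentrations.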
SMILES,"Solubility in water (%), hydrochloride salt [1]",MFE (%) (mammosphere-forming efficiency) ([2]; 0.1 μM),Number of Mammospheres ([2]; 0.1 μM),MFE (%) (mammosphere-forming efficiency) ([2]; 1 μM),Number of Mammospheres ([2]; 1 μM),MFE (%) (mammosphere-forming efficiency) ([2]; 5 μM),Number of Mammospheres ([2]; 5 μM),MFE (%) (mammosphere-forming efficiency) ([2]; 10 μM),Number of Mammospheres ([2]; 10 μM),inhibition at 0.1 µM ([2]; 0.1 μM),inhibition at 1 µM ([2]; 1 μM),inhibition at 5 µM ([2]; 5 μM),inhibition at 10 µM ([2]; 10 μM),AMPK activation effect at 10 μM (%) (AMPKα),AMPK activation effect AC150 (AMPKα),AMPK activation effect at 50 μM (%) (AMPKα)
"Cl.N=C(NC(=N)N1CCCCC1)Nc1ccc(C(F)(F)F)cc1 [Example 27, N1-piperidine-N5-(4-trifluoromethyl)phenyl biguanide hydrochloride]",20%,5.2%,103,5.2%,105 ± 16.3,3.0%,61 ± 3.5,1.6%,32,0%,-1.5%,41.3%,68.9%,455%,2.4 µM,
"Cl.N=C(NC(=N)N1CCCCC1)Nc1cccc(Cl)c1 [Example 20, N1-piperidine-N5-(3-chloro)phenyl biguanide hydrochloride]",,3.6%,72,5.2%,103,3.8%,75,1.5%,29,30.1%,0%,27.2%,71.8%,236%,3.2 µM,558%
"Cl.N=C(NC(=N)N1CCCCCC1)Nc1cccc(Cl)c1 [Example 21, N1-azepane-N5-(3-chloro)phenyl biguanide hydrochloride]",,5.8%,115,5.3%,105,3.6%,71 ± 4.2,2.3%,46 ± 2.1,30.1%,-1.9%,31.1%,55.8%,211%,4.8 µM,653%
"Cl.N=C(NC(=N)N1CCCC1)Nc1ccc(C(F)(F)F)cc1 [Example 26, N1-pyrrolidine-N5-(4-trifluoromethyl)phenyl biguanide hydrochloride]",80%,5.3%,105,5.6%,112,6.0%,120,3.6%,72 ± 11.3,-11.7%,-8.7%,-16.5%,30.1%,255%,3.1 µM,642%
